Experimental data reported in publication PMC9645390, “Amphiphilic stilbene derivatives attenuate the neurotoxicity of soluble Aβ42 oligomers by controlling their interactions with cell membranes” (Chemical Science, 2022).
Entries after “also recorded” stand apart in the source; their conditions may differ.

Assays:
[1] = tested on: mouse neuroblastoma N2a cells; assay: Alamar Blue cytotoxicity assay in N2a cells; format: cell-based; settings: 2 to 20 μM
[2] = tested on: Aβ oligomers–SH-SY5Y cell membrane interactions; assay: Confocal imaging of Aβ oligomers binding to SH-SY5Y cell membranes; format: cell-based, human; settings: 5 μM Aβ oligomers + 5 μM compound, 24 h; for Aβ oligomers bound to cell membranes (in words): CF594-HJ 3.4 staining
From the text: (§1) Encouraged by the ability of the developed amphiphilic compounds to attenuate the neurotoxicity of Cu–Aβ species, we sought out to study the possible molecular mechanisms for this beneficial effect. The Aβ oligomers were reported to interact with cell membranes in various ways, such as binding to receptors on cell membranes,[49,50] inserting into membranes,[51] or even showing cellular uptake via endocytosis.[52] The abnormal interactions between Aβ oligomers and neuron cells, which could disrupt the neuronal ion homeostasis and neuron cell membrane integrity, might be why Aβ oligomers are highly neurotoxic.[53–55] Moreover, molecules that can disrupt interactions between oligomers and cell membranes are promising candidates for drug development.[56,57] Thus, we proceeded to probe the interactions of the Aβ42 oligomers with SH-SY5Y cellular membranes, in the absence and presence of the compounds, via confocal microscopy. […] Moreover, a lower concentration of Aβ42 (5 μM) or Aβ42–Cu (5 μM) were chosen to avoid significant cell death (Fig. S9b ^†). Before investigating the neuroprotective effect of our compounds, we have also confirmed that Aβ aggregates interact tightly with the cell membranes, as shown via co-staining with a membrane specific dye (Fig. S10 ^†). […]
Fig. 10 (a) SH-SY5Y cells were treated with 5 μM Aβ oligomers in the presence or absence of 5 μM ZY-15-MT or 5 μM ZY-15-OMe for 24 h before imaging. Red and blue fluorescence indicate the Aβ oligomers and nuclei, respectively. […] (b) Three independent experiments were subjected for the statistical analysis and analyzed by one-way ANOVA (*P < 0.05, ***P < 0.001).
(§2) RCSB database and optimized by minimal minimization with the OPLS3 force field using the Protein Preparation Wizard program. […] The calculated poses were ranked by both the docking score and Glide e-model energy, and the structures with the best docking scores and Glide e-model energies were rendered in […]

[3] = tested on: Aβ fibrils–SH-SY5Y cell membrane interactions; assay: Confocal imaging of Aβ fibrils binding to SH-SY5Y cell membranes; format: cell-based, human; settings: 5 µM fibrils + 5 µM compound, 24 h
From the text: as §1, with “^†).” for “^†). Before investigating the neuroprotective effect of our compounds, we have also confirmed that Aβ aggregates interact tightly with the cell membranes, as shown via co-staining with a membrane specific dye (Fig. S10 ^†).”
as §2

SMILES | cytotoxicity (in words) [1] | Aβ oligomers bound to cell membranes (in words) [2] | Aβ fibrils binding to cell membranes (in words) [3] | decrease of the numbers of Aβ oligomers binding to the cell membranes [2]
COc1cc(OC)cc(-c2ccc(/C=C/c3cc(CN4CCN(C)CCN(C)CC4)c(O)c(OC)c3)cc2)c1 [ZY-17-OMe] | higher cytotoxicity than others; also recorded: the highest toxicity | – | – | –
COc1cc(/C=C/c2ccc(-c3ccc(C=O)cc3)s2)cc(CN2CCN(C)CCN(C)CC2)c1O [ZY-15-OMe] | – | fewer numbers of Aβ oligomers bound to the cell membranes | not able to significantly decrease the numbers of the Aβ fibrils binding to cell membranes | –
COc1cc(OC)cc(-c2ccc(/C=C/c3cc(CN4CCN(C)CCN(C)CC4)c(O)c(CN4CCN(C)CCN(C)CC4)c3)cc2)c1 [ZY-17-DT] | higher cytotoxicity than others | – | – | –
CN1CCN(C)CCN(Cc2cc(/C=C/c3ccc(-c4ccc(C=O)cc4)s3)ccc2O)CC1 [ZY-15-MT] | – | fewer numbers of Aβ oligomers bound to the cell membranes | not able to significantly decrease the numbers of the Aβ fibrils binding to cell membranes | about 50%
